Experimental data: ChEMBL document CHEMBL1201862, “PubChem BioAssay data set” (2004)
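Growth conditions: 96-well plates. Treatment: test compound, 48 hours, 5 concentrations. Analysis: linear interpolation between bracketing concentrations; unreached endpoints set to highest concentration. GI50 marks 50% less growth.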 Active and inactive are the calls of the source. No stated cut-off is given here; in the data, active = GI50 up to about 1.1 µM and inactive = higher.

Legend:
Assay in all cases: NCI tumour cell line growth inhibition, 48 h
CCRF-CEM = test system: CCRF-CEM
Hs-578T = test system: Hs-578T
NCI-H23 = test system: NCI-H23
IGROV-1 = test system: IGROV-1
MDA-MB-231 = test system: MDA-MB-231
RXF 393 = test system: RXF 393
NCI-H460 = test system: NCI-H460
SNB-75 = test system: SNB-75
DU-145 = test system: DU-145
HCC 2998 = test system: HCC 2998
RPMI-8226 = test system: RPMI-8226
A549 = test system: A549
A498 = test system: A498
SK-MEL-5 = test system: SK-MEL-5
OVCAR-3 = test system: OVCAR-3
M14 = test system: M14
OVCAR-5 = test system: OVCAR-5
BT-549 = test system: BT-549
NCI/ADR-RES = test system: NCI/ADR-RES

Compound | GI50 (CCRF-CEM) | GI50 (Hs-578T) | GI50 (NCI-H23) | GI50 (IGROV-1) | GI50 (MDA-MB-231) | GI50 (RXF 393) | GI50 (NCI-H460) | GI50 (SNB-75) | GI50 (DU-145) | GI50 (HCC 2998) | GI50 (RPMI-8226) | GI50 (A549) | GI50 (A498) | GI50 (SK-MEL-5) | GI50 (OVCAR-3) | GI50 (M14) | GI50 (OVCAR-5) | GI50 (BT-549) | GI50 (NCI/ADR-RES)
CC(=O)NC1C(OCC(=O)NCCNc2ccc([N+](=O)[O-])c3[nH]c4ccccc4c(=O)c23)C(O)C(CO)OC1(C)OCc1ccccc1 (stereo unspecified) | > 100 µM (inactive) | > 100 µM (inactive) | > 100 µM (inactive) | > 100 µM (inactive) | > 100 µM (inactive) | > 100 µM (inactive) | 50.4 µM (inactive) | > 100 µM (inactive) | > 100 µM (inactive) | > 100 µM (inactive) | > 100 µM (inactive) | > 100 µM (inactive) | > 100 µM (inactive) | > 100 µM (inactive) | > 100 µM (inactive) | > 100 µM (inactive) | > 100 µM (inactive) | > 100 µM (inactive) | > 100 µM (inactive)
COc1ccc(/C=C(\C(=C/c2ccc(OC)cc2)[N+](=O)[O-])[N+](=O)[O-])cc1 | 0.429 µM (active) | 4.18 µM (inactive) | 4.46 µM (inactive) | 4.55 µM (inactive) | 2.07 µM (inactive) | 1.54 µM (inactive) | 5.64 µM (inactive) | 26.1 µM (inactive) | 12.1 µM (inactive) | 15.5 µM (inactive) | 3.15 µM (inactive) | 22.7 µM (inactive) | 30.3 µM (inactive) | 4.07 µM (inactive) | 12.8 µM (inactive) | 4.11 µM (inactive) | 10.3 µM (inactive) | 6.1 µM (inactive) | 1.93 µM (inactive)
CN(N=O)C(=O)Nc1ccc(C(=O)O)cc1 | > 100 µM (inactive) | > 100 µM (inactive) | > 100 µM (inactive) | > 100 µM (inactive) | > 100 µM (inactive) | > 100 µM (inactive) | > 100 µM (inactive) | > 100 µM (inactive) | > 100 µM (inactive) | > 100 µM (inactive) | > 100 µM (inactive) | > 100 µM (inactive) | > 100 µM (inactive) | > 100 µM (inactive) | > 100 µM (inactive) | > 100 µM (inactive) | > 100 µM (inactive) | > 100 µM (inactive) | > 100 µM (inactive)
CCCCSC1=N/C(=C\c2ccco2)C(=O)N1 | 24.2 µM (inactive) | 29.9 µM (inactive) | 36.3 µM (inactive) | 36.6 µM (inactive) | 99.8 µM (inactive) | 12.1 µM (inactive) | 39.5 µM (inactive) | 25.9 µM (inactive) | 67.8 µM (inactive) | 30 µM (inactive) | 34.1 µM (inactive) | 43.6 µM (inactive) | 24.2 µM (inactive) | 35.4 µM (inactive) | 48.4 µM (inactive) | 53.8 µM (inactive) | > 100 µM (inactive) | 33.2 µM (inactive) | 31.9 µM (inactive)
Cc1cc(-c2nc3ccc(F)cc3s2)ccc1NC(=O)C(N)CCCCN (stereo unspecified) | 2.71 µM (inactive) | 5.12 µM (inactive) | 4.73 µM (inactive) | 0.617 µM (active) | 9.38 µM (inactive) | 10.4 µM (inactive) | 1.82 µM (inactive) | 4.83 µM (inactive) | 12.3 µM (inactive) | 1.26 µM (inactive) | 3.31 µM (inactive) | 2.64 µM (inactive) | 11 µM (inactive) | 9.68 µM (inactive) | 7.83 µM (inactive) | 3.29 µM (inactive) | 7.64 µM (inactive) | 14.4 µM (inactive) | 15.1 µM (inactive)
Cc1ccc2c(O)c3c(cc2c1)C(=O)c1c2c(cc(O)c1C3=O)C1(C)OC(O2)C(O)C(N(C)C)C1O (stereo unspecified) | 0.154 µM (active) | 1.02 µM (active) | 1.26 µM (inactive) | 0.912 µM (active) | 1.33 µM (inactive) | 1.21 µM (inactive) | 0.109 µM (active) | 1.04 µM (active) | 0.767 µM (active) | 1.19 µM (inactive) | 0.29 µM (active) | 0.719 µM (active) | 1.28 µM (inactive) | 1.22 µM (inactive) | 0.794 µM (active) | 1.56 µM (inactive) | 1.97 µM (inactive) | 1.49 µM (inactive) | 1.4 µM (inactive)
C[C@@H]1CC[C@@]2(NC1)O[C@H]1C[C@H]3[C@@H]4CC[C@H]5C[C@@H](O)CC[C@]5(C)[C@H]4CC[C@]3(C)[C@H]1[C@@H]2C | > 100 µM (inactive) | 46 µM (inactive) | 77.3 µM (inactive) | 90.2 µM (inactive) | 38.1 µM (inactive) | > 100 µM (inactive) | 54.3 µM (inactive) | 61.9 µM (inactive) | > 100 µM (inactive) | 37.2 µM (inactive) | 31.2 µM (inactive) | > 100 µM (inactive) | 68.7 µM (inactive) | 42.1 µM (inactive) | 61.7 µM (inactive) | 65.2 µM (inactive) | > 100 µM (inactive) | > 100 µM (inactive) | 30.8 µM (inactive)
COc1ccccc1-c1cc(=O)c2ccc(OC)c(OC)c2o1 | > 100 µM (inactive) | 41.7 µM (inactive) | > 100 µM (inactive) | 97.1 µM (inactive) | > 100 µM (inactive) | 27.1 µM (inactive) | 49.5 µM (inactive) | 70.5 µM (inactive) | 55.5 µM (inactive) | 52.8 µM (inactive) | 47.6 µM (inactive) | 45.6 µM (inactive) | 37.8 µM (inactive) | 27.7 µM (inactive) | 31.6 µM (inactive) | 64.3 µM (inactive) | > 100 µM (inactive) | 76.9 µM (inactive) | 26.4 µM (inactive)
CC1(C)CNC(c2ccc3c(c2)Cc2cc(C4=NC(C)(C)CN4)ccc2-3)=N1 | 48.2 µM (inactive) | 64.7 µM (inactive) | 35.1 µM (inactive) | > 100 µM (inactive) | 39.1 µM (inactive) | > 100 µM (inactive) | 30.8 µM (inactive) | 90.6 µM (inactive) | > 100 µM (inactive) | 26.2 µM (inactive) | 25.2 µM (inactive) | > 100 µM (inactive) | 77.8 µM (inactive) | 60.7 µM (inactive) | 35.7 µM (inactive) | 45.1 µM (inactive) | > 100 µM (inactive) | > 100 µM (inactive) | > 100 µM (inactive)
CCOC(=O)C(CCSC)(CCSC)C(=O)OCC | > 100 µM (inactive) | > 100 µM (inactive) | > 100 µM (inactive) | > 100 µM (inactive) | > 100 µM (inactive) | > 100 µM (inactive) | > 100 µM (inactive) | > 100 µM (inactive) | > 100 µM (inactive) | > 100 µM (inactive) | > 100 µM (inactive) | > 100 µM (inactive) | > 100 µM (inactive) | > 100 µM (inactive) | > 100 µM (inactive) | > 100 µM (inactive) | > 100 µM (inactive) | > 100 µM (inactive) | > 100 µM (inactive)
CCCCCCCCCCCCCCCCC(=O)NCC(=O)NCC(=O)NC(Cc1ccccc1)C(=O)Oc1ccc([N+](=O)[O-])cc1 (stereo unspecified) | 22 µM (inactive) | > 100 µM (inactive) | 73.1 µM (inactive) | > 100 µM (inactive) | 23.4 µM (inactive) | 23.4 µM (inactive) | 18.3 µM (inactive) | 45.2 µM (inactive) | > 100 µM (inactive) | 17.7 µM (inactive) | 21 µM (inactive) | > 10 µM (inactive) | > 100 µM (inactive) | 21.6 µM (inactive) | > 100 µM (inactive) | 21.4 µM (inactive) | 27.5 µM (inactive) | 16.7 µM (inactive) | 20.6 µM (inactive)
Cc1ccc2ccccc2c1CSc1nc(N)nc2c1ncn2CC(C)C | 6.15 µM (inactive) | > 35.2 µM (inactive) | 24.4 µM (inactive) | 51.2 µM (inactive) | > 30.9 µM (inactive) | 10.7 µM (inactive) | 14.2 µM (inactive) | 43.3 µM (inactive) | 82.4 µM (inactive) | 19.3 µM (inactive) | 5.65 µM (inactive) | 10.9 µM (inactive) | 26.9 µM (inactive) | 7.05 µM (inactive) | 14.4 µM (inactive) | 17.3 µM (inactive) | 96.2 µM (inactive) | 39.4 µM (inactive) | 21.8 µM (inactive)
COCn1cnc2c(=O)n(-c3ccc(C)cc3)c(=S)n(-c3ccc(C)cc3)c21 | > 100 µM (inactive) | > 100 µM (inactive) | > 100 µM (inactive) | > 100 µM (inactive) | > 100 µM (inactive) | 78.3 µM (inactive) | > 100 µM (inactive) | 6.98 µM (inactive) | > 100 µM (inactive) | > 100 µM (inactive) | > 100 µM (inactive) | > 100 µM (inactive) | > 100 µM (inactive) | > 100 µM (inactive) | > 100 µM (inactive) | > 100 µM (inactive) | > 100 µM (inactive) | > 100 µM (inactive) | > 100 µM (inactive)
CSc1c(C#N)c(N)nc2c(/N=N\c3ccc(Br)cc3)c(N)nn12 | 3.12 µM (inactive) | 2.37 µM (inactive) | 6.25 µM (inactive) | 3.01 µM (inactive) | 6.97 µM (inactive) | 7.57 µM (inactive) | 12.8 µM (inactive) | 10.6 µM (inactive) | 6.14 µM (inactive) | 8.87 µM (inactive) | 9.84 µM (inactive) | 8.99 µM (inactive) | 24 µM (inactive) | 18.1 µM (inactive) | 2.95 µM (inactive) | 8.83 µM (inactive) | 16.6 µM (inactive) | 12.4 µM (inactive) | 17.7 µM (inactive)
